Source: patent US6013651A, “Meta-azacyclic amino benzoic acid compounds and derivatives thereof” (G. D. Searle & Co., priority 1998, dated 2000)
Where a name gives a salt, the structure may show the parent alone. Read-outs that look alike come from different tables or passages of the source. Values belong to the compound of their own block, whether it stands above or below them.

Experiments:
[1] = molecular target: T1, human vitronectin receptor (αv β3) (Homo sapiens, UniProt P05106+P06756); experiment: Vitronectin adhesion assay, solid phase receptor assay (inhibition of biotinylated vitronectin binding to purified αvβ3)
T1 construct: purified from human placenta; from tissue; host or cells: human placenta
Method: Human vitronectin receptor (αv β3) was purified from human placenta as previously described [Pytela et al., Methods in Enzymology, 144:475-489 (1987)]. Human vitronectin was purified from fresh frozen plasma as previously described [Yatohgo et al., Cell Structure and Function, 13:281-292 (1988)]. Biotinylated human vitronectin was prepared by coupling NHS-biotin from Pierce Chemical Company (Rockford, Ill.) to purified vitronectin as previously described [Charo et al., J. Biol. Chem., 266(3):1415-1421 (1991)]. Assay buffer, OPD substrate tablets, and RIA grade BSA were obtained from Sigma (St. Louis, Mo.). Anti-biotin antibody was obtained from Calbiochem (La Jolla, Calif.). Linbro microtiter plates were obtained from Flow Labs (McLean, Va.). ADP reagent was obtained from Sigma (St. Louis, Mo.).
This assay was essentially the same as previously reported [Niiya et al., Blood, 70:475-483 (1987)]. The purified human vitronectin receptor (αv β3) was diluted from stock solutions to […] in tris-buffered saline containing 1.0 mM Ca^++, Mg^++, and Mn^++, pH 7.4 (TBS^+++). The diluted receptor was immediately transferred to Linbro microtiter plates at 100 µL/well (100 ng receptor/well). The plates were sealed and incubated overnight at 4° C. to allow the receptor to bind to the wells. All remaining steps were at room temperature. The assay plates were emptied and 200 µL of 1% RIA grade BSA in TBS^+++ (TBS^+++ /BSA) were added to block exposed plastic surfaces. Following a 2 hour incubation, the assay plates were washed with TBS^+++ using a 96 well plate washer. Logarithmic serial dilution of the test compound and controls were made starting at a stock concentration of 2 mM and using 2 nM biotinylated vitronectin in TBS^+++ /BSA as the diluent. This premixing of labeled ligand with test (or control) ligand, and subsequent transfer of 50 µL aliquots to the assay plate was carried out with a CETUS Propette robot; the final concentration of the labeled ligand was 1 nM and the highest concentration of test compound was 1.0×10^-4 M. The competition occurred for two hours after which all wells were washed with a plate washer as before. Affinity purified horseradish peroxidase labeled goat anti-biotin antibody was diluted 1:3000 in TBS^+++ /BSA and 125 µL were added to each well. After 30 minutes, the plates were washed and incubated with OPD/H2 O substrate in 100 mM/L Citrate buffer, pH 5.0. The plate was read with a microtiter plate reader at a wavelength of 450 nm and when the maximum-binding control wells reached an absoround bottomance of about 1.0, the final A450 were recorded for analysis. The data were analyzed using a macro written for use with the EXCEL spreadsheet program. The mean, standard deviation, and % CV were determined for duplicate concentrations. The mean A450 values were normalized to the mean of four maximum-binding controls (no competitor added)(B-MAX). The normalized values were subjected to a four parameter curve fit algorithm [Rodbard et al., Int.

[2] = molecular target: T2, human fibrinogen receptor (αIIb β3) (Homo sapiens, UniProt P05106+P08514); experiment: Purified IIb/IIIa receptor assay, solid phase receptor assay (inhibition of biotinylated vitronectin binding); conditions: 1 nM biotinylated human vitronectin, pH 7.4, 2 h competition
T2 construct: purified from outdated platelets; from tissue; host or cells: outdated human platelets
Description: Human fibrinogen receptor (αIIb β3) was purified from outdated platelets. (Pytela, R., Pierschbacher, M. D., Argraves, S., Suzuki, S., and Rouslahti, E. "Arginine-Glycine-Aspartic acid adhesion receptors", Methods in Enzymology 144(1987):475-489.) Human vitronectin was purified from fresh frozen plasma as described in Yatohgo, T., Izumi, M., Kashiwagi, H., and Hayashi, M., "Novel purification of vitronectin from human plasma by heparin affinity chromatography," Cell Structure and Function 13(1988):281-292. Biotinylated human vitronectin was prepared by coupling NHS-biotin from Pierce Chemical Company (Rockford, Il.) to purified vitronectin as previously described. (Charo, I. F., Nannizzi, L., Phillips, D. R., Hsu, M. A., Scaround bottomorough, R. M., "Inhibition of fibrinogen binding to GP IIIb/IIIa by a GP IIIa peptide", J. Biol. Chem. 266(3)(1991): 1415-1421.) Assay buffer, OPD substrate tablets, and RIA grade BSA were obtained from Sigma (St. Louis, Mo.). Anti-biotin antibody was obtained from Calbiochem (La Jolla, Calif.). Linbro microtiter plates were obtained from Flow Labs (McLean, Va.). ADP reagent was obtained from Sigma (St. Louis, Mo.).
This assay is essentially the same reported in Niiya, K., Hodson, E., Bader, R., Byers-Ward, V. Koziol, J. A., Plow, E. F. and Ruggeri, Z. M., "Increased surface expression of the membrane glycoprotein IIb/IIIa complex induced by platelet activation: Relationships to the binding of fibrinogen and platelet aggregation", Blood 70(1987):475-483. The purified human fibrinogen receptor (αIIb β3) was diluted from stock solutions to 1.0 μg/mL in Tris-buffered saline containing 1.0 mM Ca^++, Mg^++, and Mn^++, pH 7.4 (TBS^+++). The diluted receptor was immediately transferred to Linbro microtiter plates at 100 μL/well (100 ng receptor/well). The plates were sealed and incubated overnight at 4° C. to allow the receptor to bind to the wells. All remaining steps were at room temperature. The assay plates were emptied and 200 μL of 1% RIA grade BSA in TBS^+++ (TBS^+++ /BSA) were added to block exposed plastic surfaces. Following a 2 hour incubation, the assay plates were washed with TBS^+++ using a 96 well plate washer. Logarithmic serial dilution of the test compound and controls were made starting at a stock concentration of 2 mM and using 2 nM biotinylated vitronectin in TBS^+++ /BSA as the diluent. This premixing of labeled ligand with test (or control) ligand, and subsequent transfer of 50 μL aliquots to the assay plate was carried out with a CETUS Propette robot; the final concentration of the labeled ligand was 1 nM and the highest concentration of test compound was 1.0×10^-4 M. The competition occurred for two hours after which all wells were washed with a plate washer as before. Affinity purified horseradish peroxidase labeled goat anti-biotin antibody was diluted 1:3000 in TBS^+++ /BSA and 125 μL were added to each well. After 30 minutes, the plates were washed and incubated with […]/H2 O2 substrate in 100 mM/L citrate buffer, pH 5.0. The plate was read with a microtiter plate reader at a wavelength of 450 nm and when the maximum-binding control wells reached an absoround bottomance of about 1.0, the final A450 were recorded for analysis. The data were analyzed using a macro written for use with the EXCEL™ spreadsheet program. The mean, standard deviation, and % CV were determined for duplicate concentrations. The mean A450 values were normalized to the mean of four maximum-binding controls (no competitor added)(B-MAX). The normalized values were subjected to a four parameter curve fit algorithm, [Robard et al., Int.

[3] = 1 nM biotinylated human vitronectin, purified receptor, pH 7.4, 2 h competition, read-out: αv β3 IC50

T2 sequence (P08514 32-887 limits assumed): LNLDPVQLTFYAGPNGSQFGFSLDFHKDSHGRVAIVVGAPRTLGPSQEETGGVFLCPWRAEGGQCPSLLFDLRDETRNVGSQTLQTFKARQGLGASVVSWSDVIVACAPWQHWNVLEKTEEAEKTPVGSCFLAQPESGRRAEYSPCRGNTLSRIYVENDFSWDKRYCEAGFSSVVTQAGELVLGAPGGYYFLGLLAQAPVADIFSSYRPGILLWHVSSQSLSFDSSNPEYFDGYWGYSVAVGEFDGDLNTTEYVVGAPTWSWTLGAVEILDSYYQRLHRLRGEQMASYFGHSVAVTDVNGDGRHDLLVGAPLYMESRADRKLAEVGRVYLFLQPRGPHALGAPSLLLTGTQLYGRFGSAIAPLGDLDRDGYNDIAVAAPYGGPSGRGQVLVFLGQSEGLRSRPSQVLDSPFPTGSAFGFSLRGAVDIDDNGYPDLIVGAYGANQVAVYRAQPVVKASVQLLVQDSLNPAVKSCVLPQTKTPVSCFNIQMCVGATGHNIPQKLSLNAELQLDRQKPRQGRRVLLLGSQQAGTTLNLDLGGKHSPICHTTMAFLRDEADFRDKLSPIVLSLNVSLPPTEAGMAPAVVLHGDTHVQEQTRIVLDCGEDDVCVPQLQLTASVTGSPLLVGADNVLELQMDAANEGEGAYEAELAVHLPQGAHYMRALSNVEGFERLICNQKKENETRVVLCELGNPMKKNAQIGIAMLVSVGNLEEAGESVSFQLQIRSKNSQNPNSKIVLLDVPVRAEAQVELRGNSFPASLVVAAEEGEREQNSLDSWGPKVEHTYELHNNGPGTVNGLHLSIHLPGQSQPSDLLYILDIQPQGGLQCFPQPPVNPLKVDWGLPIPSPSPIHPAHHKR
T2 sequence (P08514 891-1039 limits assumed): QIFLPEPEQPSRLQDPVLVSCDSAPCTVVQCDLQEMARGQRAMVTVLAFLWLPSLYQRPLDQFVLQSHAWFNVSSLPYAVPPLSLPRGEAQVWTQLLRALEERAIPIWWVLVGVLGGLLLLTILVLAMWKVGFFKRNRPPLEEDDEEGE
T2 sequence (P05106 27-788): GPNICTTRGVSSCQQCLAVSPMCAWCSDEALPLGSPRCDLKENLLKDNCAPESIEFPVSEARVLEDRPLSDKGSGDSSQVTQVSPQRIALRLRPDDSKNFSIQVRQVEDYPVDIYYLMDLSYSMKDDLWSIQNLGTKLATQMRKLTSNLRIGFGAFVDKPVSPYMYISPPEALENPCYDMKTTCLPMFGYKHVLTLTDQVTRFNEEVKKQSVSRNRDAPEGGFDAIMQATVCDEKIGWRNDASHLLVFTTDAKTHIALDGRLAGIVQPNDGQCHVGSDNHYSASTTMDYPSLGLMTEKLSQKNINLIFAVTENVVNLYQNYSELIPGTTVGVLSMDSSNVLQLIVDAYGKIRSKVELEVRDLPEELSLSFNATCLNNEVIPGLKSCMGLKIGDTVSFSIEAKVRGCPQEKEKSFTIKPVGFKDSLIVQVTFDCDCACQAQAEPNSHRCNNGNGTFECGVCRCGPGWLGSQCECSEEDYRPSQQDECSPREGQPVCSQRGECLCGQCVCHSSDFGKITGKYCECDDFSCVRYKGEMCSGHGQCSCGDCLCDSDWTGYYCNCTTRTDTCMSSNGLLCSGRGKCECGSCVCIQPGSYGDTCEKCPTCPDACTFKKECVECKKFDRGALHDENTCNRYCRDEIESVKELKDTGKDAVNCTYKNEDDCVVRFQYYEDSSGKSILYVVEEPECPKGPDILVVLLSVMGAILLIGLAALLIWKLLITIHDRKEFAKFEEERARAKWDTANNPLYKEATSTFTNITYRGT
T1 sequence (P06756 31-889 limits assumed): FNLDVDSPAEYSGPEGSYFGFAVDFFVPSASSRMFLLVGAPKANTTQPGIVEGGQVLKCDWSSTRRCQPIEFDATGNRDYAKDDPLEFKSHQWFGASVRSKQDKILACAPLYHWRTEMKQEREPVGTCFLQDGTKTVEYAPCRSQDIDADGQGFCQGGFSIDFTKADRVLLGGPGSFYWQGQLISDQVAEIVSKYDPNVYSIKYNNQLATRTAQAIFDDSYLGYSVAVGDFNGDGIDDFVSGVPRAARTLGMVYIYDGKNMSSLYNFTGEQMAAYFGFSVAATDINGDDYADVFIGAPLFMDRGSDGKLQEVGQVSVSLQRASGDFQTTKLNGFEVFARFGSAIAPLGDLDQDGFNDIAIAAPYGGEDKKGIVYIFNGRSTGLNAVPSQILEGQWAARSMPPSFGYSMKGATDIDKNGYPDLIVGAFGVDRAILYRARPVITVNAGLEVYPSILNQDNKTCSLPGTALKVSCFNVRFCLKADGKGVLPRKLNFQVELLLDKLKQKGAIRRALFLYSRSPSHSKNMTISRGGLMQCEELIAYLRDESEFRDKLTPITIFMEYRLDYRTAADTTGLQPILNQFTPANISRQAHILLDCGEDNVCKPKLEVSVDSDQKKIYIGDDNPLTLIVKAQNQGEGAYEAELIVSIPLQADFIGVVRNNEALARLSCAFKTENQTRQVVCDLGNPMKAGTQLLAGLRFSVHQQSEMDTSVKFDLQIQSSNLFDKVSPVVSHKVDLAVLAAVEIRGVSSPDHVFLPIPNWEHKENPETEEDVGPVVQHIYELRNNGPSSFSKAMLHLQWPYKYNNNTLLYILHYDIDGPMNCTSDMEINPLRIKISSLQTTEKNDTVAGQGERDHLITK
T1 sequence (P06756 891-1048 limits assumed): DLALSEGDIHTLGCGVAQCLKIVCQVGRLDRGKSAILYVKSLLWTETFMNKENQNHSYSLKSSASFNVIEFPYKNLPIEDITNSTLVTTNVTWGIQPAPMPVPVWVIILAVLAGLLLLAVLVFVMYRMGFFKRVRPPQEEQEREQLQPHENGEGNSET
T1 sequence (P05106 27-788): as the sequence (P05106 27-788) above

Structure (SMILES): O=C(O)C[C@H](NC(=O)CNC(=O)c1cc(O)cc(NC2=NCC(O)CN2)c1)c1cc(Br)cc(I)c1O (stereo partly shown) [Example 12]
IC50 [1, 3]: 0.00959 µM
IC50 [2]: 1.06 µM

Structure (SMILES): O=C(O)CC(NC(=O)CNC(=O)c1cc(O)cc(NC2=NCC(O)CN2)c1)c1cc(Br)cc(I)c1O (stereo not shown) [Example 3]
IC50 [1, 3]: 0.0237 µM
IC50 [2]: 2.44 µM

Structure (SMILES): O=C(O)C[C@H](NC(=O)CNC(=O)c1cc(O)cc(N=C2NCC(O)CN2)c1)c1cc(Br)cc(Cl)c1O (stereo partly shown) [Example 7]
IC50 [1, 3]: 0.00101 µM
IC50 [2]: 0.262 µM

Structure (SMILES): N=C(N)NCCCCC(=O)NCC(=O)NC(CC(=O)O)c1cccnc1 (stereo not drawn) [β-[[2-[[5-[(aminoiminomethyl)-amino]-1-oxopentyl]amino]-1-oxoethyl]amino]-3-pyridinepropanoic acid, reference compound]
IC50 ([1]; positive control included on each plate, read-out: αv β3 antagonist IC50 of positive control): 0.003 to 0.01 µM

Structure (SMILES): O=C(O)CC(NC(=O)CNC(=O)c1cc(O)cc(NC2=NCC(O)CN2)c1)c1cc(Br)cc(Cl)c1O (stereo not shown) [Example 4]
IC50 [1, 3]: 0.00202 µM
IC50 [2]: 0.575 µM

Structure (SMILES): O=C(O)CC(NC(=O)CNC(=O)c1cc(O)cc(NC2=NCC(O)CN2)c1)c1cc(Cl)cc(I)c1O (stereo not shown) [Example 5]
IC50 [1, 3]: 0.00213 µM
IC50 [2]: 0.744 µM

Structure (SMILES): O=C(O)C[C@H](NC(=O)CNC(=O)c1cc(O)cc(NC2=NCC(O)CN2)c1)c1cc(Br)cc(Br)c1O (stereo partly shown) [Example 10]
IC50 [1, 3]: 0.00226 µM
IC50 [2]: 0.641 µM

Structure (SMILES): O=C(O)CC(NC(=O)CNC(=O)c1cc(O)cc(NC2=NCC(O)CN2)c1)c1cc(Br)cc(Br)c1O (stereo not shown) [Example 6]
IC50 [1, 3]: 0.00646 µM
IC50 [2]: 0.919 µM

Structure (SMILES): O=C(O)CC(NC(=O)CNC(=O)c1cc(O)cc(NC2=NCC(O)CN2)c1)c1cc(Cl)cc(Cl)c1O (stereo not shown) [Example 2]
IC50 [1, 3]: 0.00104 µM
IC50 [2]: 0.43 µM

Continued by falling IC50 [1, 3], values first:

IC50 [1, 3]: 0.00088 µM
IC50 [2]: 0.31 µM
Structure (SMILES): O=C(O)CC(NC(=O)CNC(=O)c1cc(O)cc(NC2=NCC(O)CN2)c1)c1cc(Cl)cc(Br)c1O (racemic) [Example 1, (±) 3-bromo-5-chloro-2-hydroxy-β-[[2-[[[3-hydroxy-5-[(1,4,5,6-tetrahydro-5-hydroxypyrimidin-2-yl)amino]phenyl]carbonyl]amino]acetyl]amino]benzenepropanoic acid, trifluroacetate salt]

IC50 [1, 3]: 0.00082 µM
IC50 [2]: 0.226 µM
Structure (SMILES): O=C(O)C[C@H](NC(=O)CNC(=O)c1cc(O)cc(NC2=NCC(O)CN2)c1)c1cc(Cl)cc(Br)c1O (stereo partly shown) [9 · HCl]

IC50 [1, 3]: 0.0004 µM
IC50 [2]: 0.131 µM
Structure (SMILES): O=C(O)C[C@H](NC(=O)CNC(=O)c1cc(O)cc(N=C2NCC(O)CN2)c1)c1cc(Cl)cc(Cl)c1O (stereo partly drawn) [Example 8, (S) 3,5-dichloro-2-hydroxy-β-[[2-[[[3-hydroxy-5-[(1,4,5,6-tetrahydro-5-hydroxypyrimidin-2-yl)amino]phenyl]carbonyl]amino]acetyl]amino]-benzenepropanoic acid, monohydrochloride monohydrate]

IC50 [1, 3]: 0.00037 µM
IC50 [2]: 0.388 µM
Structure (SMILES): O=C(O)C[C@H](NC(=O)CNC(=O)c1cc(O)cc(NC2=NCC(O)CN2)c1)c1cc(Cl)cc(Br)c1O (stereo partly drawn) [Example 9, (S) 3-bromo-5-chloro-2-hydroxy-β-[[2-[[[3-hydroxy-5-[(1,4,5,6-tetrahydro-5-hydroxypyrimidin-2-yl)amino]phenyl]carbonyl]amino]acetyl]amino]-benzenepropanoic acid, trifluoroacetate salt]
